# Tested on: HBsAg
# Assay: HBsAg assay (CLIA) in HepG2.2.15 cells
# Type: cell-based, HBV
# Conditions: Hepatitis B virus, HepG2.2.15, read-out: IC50 (HBsAg assay)
# Description: HepG2.2.15 cells (Acs et al. Proc Natl Acad Sci USA, 84, (1987), 4641-4), a constitutively HBV-expressing cell line were cultured in DMEM+Glutamax-I medium (Invitrogen, Carlsbad, Calif., USA), supplemented with 10% fetal bovine serum (Invitrogen) and G418 (Invitrogen) at a final concentration of 200 mg/L and maintained in 5% CO2 at 37° C.
# HepG2.2.15 cells were seeded in duplicate into white, 96-well plates at 1.5×10^4 cells/well. The cells were treated with a three-fold serial dilution series of the compounds in DMSO. The final DMSO concentration in all wells was 1% and DMSO was used as no drug control.
# The HBsAg chemiluminescence immunoassay (CLIA) kit (Autobio Diagnostics Co., Zhengzhou, China, Catalog number: CL0310-2) was used to measure the levels of secreted HBV antigens semi-quantitatively. For the detection 50 μL/well culture supernatant was used and HBsAg was quantified using HBsAg chemiluminescence immunoassay (CLIA) kit (Autobio Diagnostics Co., Zhengzhou, China, Catalog number: CL0310-2), 50 μL of the supernatant was transferred to the CLIA assay plate and 50 μL of enzyme conjugate reagent was added into each well. The plates were sealed and gently agitated for 1 hour at room temperature. The supernatant-enzyme-mixture was discarded and wells were washed 6 times with 300 μL of PBS. The residual liquid was removed by plating the CLIA plate […] on absorbent tissue paper. 25 μL of substrates A and B were added to each well. Luminance was measured using a luminometer (Mithras LB 940 Multimode Microplate Reader) after 10 minutes incubation. Dose-response curves were generated and the IC50 value was extrapolated by using the E-WorkBook Suite (ID Business Solutions Ltd., Guildford, UK). The IC50 was defined as the compound concentration (or conditioned media log dilution) at which HBsAg secretion was reduced by 50% compared to the no drug control.
# The compounds according to formula I were tested for their capacity to inhibit HBsAg as described herein.
row,SMILES,IC50 [nM]
1,"Fc1ccc(N2CCc3nc(-c4ccccn4)ncc3C2)c(OCc2ccccc2)c1 [Example 38, 6-(2-benzyloxy-4-fluoro-phenyl)-2-(2-pyridyl)-7,8-dihydro-5H-pyrido[4,3-d]pyrimidine]",17700
2,"COC(=O)c1cc(F)cc(N2CCc3nc(-c4ncccn4)ncc3C2)c1 [Example 102, methyl 3-fluoro-5-(2-pyrimidin-2-yl-7,8-dihydro-5H-pyrido[4,3-d]pyrimidin-6-yl)benzoate]",11900
3,C/C=C/c1nc(-c2ccccn2)nc2c1CN(c1ccc(S(C)(=O)=O)cc1)CC2 [Example 84],8560
4,"NC(=O)c1cc(F)cc(N2CCc3nc(-c4ncccn4)ncc3C2)c1 [Example 105, 3-fluoro-5-(2-pyrimidin-2-yl-7,8-dihydro-5H-pyrido[4,3-d]pyrimidin-6-yl)benzamide]",18100
5,"COc1cc(N2CCc3nc(-c4ccccn4)ncc3C2)ccc1C(=O)O [Example 65, 2-methoxy-4-[2-(2-pyridyl)-7,8-dihydro-5H-pyrido[4,3-d]pyrimidin-6-yl]benzoic acid]",18400
6,"CNC(=O)c1cc(F)cc(N2CCc3nc(-c4ncccn4)ncc3C2)c1 [Example 103, 3-fluoro-N-methyl-5-(2-pyrimidin-2-yl-7,8-dihydro-5H-pyrido[4,3-d]pyrimidin-6-yl)benzamide]",2770
7,"Fc1cc(F)cc(N2CCc3nc(-c4ccccn4)ncc3C2)c1 [Example 13, 6-(3,5-difluorophenyl)-2-(2-pyridyl)-7,8-dihydro-5H-pyrido[4,3-d]pyrimidine]",1040
8,"COc1cc(N2CCc3nc(-c4ccccn4)ncc3C2)cc(F)c1F [Example 17, 6-(3,4-difluoro-5-methoxy-phenyl)-2-(2-pyridyl)-7,8-dihydro-5H-pyrido[4,3-d]pyrimidine]",154
9,"COc1ncc(Cl)c(N2CCc3nc(-c4ccccn4)ncc3C2)n1 [Example 69, 6-(5-chloro-2-methoxy-pyrimidin-4-yl)-2-(2-pyridyl)-7,8-dihydro-5H-pyrido[4,3-d]pyrimidine]",999
10,"Fc1cc(N2CCc3nc(-c4ccccn4)ncc3C2)ccc1OCc1ccccc1 [Example 53, 6-(4-benzyloxy-3-fluoro-phenyl)-2-(2-pyridyl)-7,8-dihydro-5H-pyrido[4,3-d]pyrimidine]",1560
11,"COc1c(N2CCc3nc(-c4ncccn4)ncc3C2)ccc(F)c1F [Example 30, 6-(3,4-difluoro-2-methoxy-phenyl)-2-pyrimidin-2-yl-7,8-dihydro-5H-pyrido[4,3-d]pyrimidine]",9490
12,"O=C(NCCCCCO)c1cc(F)cc(N2CCc3nc(-c4ncccn4)ncc3C2)c1 [Example 107, 3-fluoro-N-(5-hydroxypentyl)-5-(2-pyrimidin-2-yl-7,8-dihydro-5H-pyrido[4,3-d]pyrimidin-6-yl)benzamide]",7120
13,"COCCCNC(=O)c1cc(F)cc(N2CCc3nc(-c4ncccn4)ncc3C2)c1 [Example 106, 3-fluoro-N-(3-methoxypropyl)-5-(2-pyrimidin-2-yl-7,8-dihydro-5H-pyrido[4,3-d]pyrimidin-6-yl)benzamide]",1340
14,"CCCCOc1cc(N2CCc3nc(-c4ccccn4)ncc3C2)ccc1C(=O)O [Example 67, 2-butoxy-4-[2-(2-pyridyl)-7,8-dihydro-5H-pyrido[4,3-d]pyrimidin-6-yl]benzoic acid]",7800
15,"Fc1cc(Br)cc(N2CCc3nc(-c4ncccn4)ncc3C2)c1 [Example 41, 6-(3-bromo-5-fluoro-phenyl)-2-pyrimidin-2-yl-7,8-dihydro-5H-pyrido[4,3-d]pyrimidine]",500
16,"Fc1cc(F)nc(N2CCc3nc(-c4ncccn4)ncc3C2)c1 [Example 110, 6-(4,6-difluoro-2-pyridyl)-2-pyrimidin-2-yl-7,8-dihydro-5H-pyrido[4,3-d]pyrimidine]",1440

row,SMILES,IC50 [nM]
1,"Fc1cc(N2CCc3nc(-c4ccccn4)ncc3C2)cc(F)c1OCc1ccccc1 [Example 64, 6-(4-benzyloxy-3,5-difluoro-phenyl)-2-(2-pyridyl)-7,8-dihydro-5H-pyrido[4,3-d]pyrimidine]",1820
2,"CCOc1cc(N2CCc3nc(-c4ccccn4)ncc3C2)cc(F)c1F [Example 21, 6-(3-ethoxy-4,5-difluoro-phenyl)-2-(2-pyridyl)-7,8-dihydro-5H-pyrido[4,3-d]pyrimidine]",321
3,"COc1cc(N2CCc3nc(-c4cnccn4)ncc3C2)cc(F)c1F [Example 28, 6-(3,4-difluoro-5-methoxy-phenyl)-2-pyrazin-2-yl-7,8-dihydro-5H-pyrido[4,3-d]pyrimidine]",455
4,Cc1nc(-c2ccccn2)nc2c1CN(c1ccc(S(C)(=O)=O)cc1)CC2 [Example 87],10300
5,"COc1cc(F)c(F)cc1N1CCc2nc(-c3ccccn3)ncc2C1 [Example 27, 6-(4,5-difluoro-2-methoxy-phenyl)-2-(2-pyridyl)-7,8-dihydro-5H-pyrido[4,3-d]pyrimidine]",3160
6,"N#Cc1cc(F)cc(N2CCc3nc(-c4ncccn4)ncc3C2)c1 [Example 101, 3-fluoro-5-(2-pyrimidin-2-yl-7,8-dihydro-5H-pyrido[4,3-d]pyrimidin-6-yl)benzonitrile]",674
7,"COCCCOc1cc(N2CCc3nc(-c4ccccn4)ncc3C2)cc(F)c1F [Example 19, 6-[3,4-difluoro-5-(3-methoxypropoxy)phenyl]-2-(2-pyridyl)-7,8-dihydro-5H-pyrido[4,3-d]pyrimidine]",461
8,"COc1cc(F)nc(N2CCc3nc(-c4ncccn4)ncc3C2)c1 [Example 99, 6-(6-fluoro-4-methoxy-2-pyridyl)-2-pyrimidin-2-yl-7,8-dihydro-5H-pyrido[4,3-d]pyrimidine]",100
9,"Clc1ccc(N2CCc3nc(-c4ccccn4)ncc3C2)nc1 [Example 36, 6-(5-chloro-2-pyridyl)-2-(2-pyridyl)-7,8-dihydro-5H-pyrido[4,3-d]pyrimidine]",1540
10,"CNS(=O)(=O)c1ccc(N2CCc3nc(-c4ccccn4)ncc3C2)cc1 [Example 8, N-methyl-4-[2-(2-pyridyl)-7,8-dihydro-5H-pyrido[4,3-d]pyrimidin-6-yl]benzenesulfonamide]",4180
11,"COc1cc(N2CCc3nc(-c4ncccn4)ncc3C2)cc(Cl)n1 [Example 116, 6-(2-chloro-6-methoxy-4-pyridyl)-2-pyrimidin-2-yl-7,8-dihydro-5H-pyrido[4,3-d]pyrimidine]",530
12,"COc1cc(N2CCc3nc(-c4ncccn4)ncc3C2)cc(F)n1 [Example 112, 6-(2-fluoro-6-methoxy-4-pyridyl)-2-pyrimidin-2-yl-7,8-dihydro-5H-pyrido[4,3-d]pyrimidine]",553
13,"Fc1ccc(N2CCc3nc(-c4ccccn4)ncc3C2)cc1F [Example 10, 6-(3,4-difluorophenyl)-2-(2-pyridyl)-7,8-dihydro-5H-pyrido[4,3-d]pyrimidine]",2690
14,"COc1cc(OC)cc(N2CCc3nc(-c4ncccn4)ncc3C2)c1 [Example 73, 6-(3,5-dimethoxyphenyl)-2-pyrimidin-2-yl-7,8-dihydro-5H-pyrido[4,3-d]pyrimidine]",1960
15,"COCCOc1cc(N2CCc3nc(-c4ccccn4)ncc3C2)cc(F)c1F [Example 23, 6-[3,4-difluoro-5-(2-methoxyethoxy)phenyl]-2-(2-pyridyl)-7,8-dihydro-5H-pyrido[4,3-d]pyrimidine]",549

# From patent US10196391B2 (Hoffmann-La Roche Inc., priority 2014, dated 2019)
